Results reported in publication PMC12333940, “A prometabolite strategy inhibits cardiometabolic disease in an ApoE^–/– murine model of atherosclerosis” (JCI Insight, 2025).
Values joined by “and” are separate entries in the source; they are usually repeats but may differ in a detail not shown here. Equal entries are not always repeated.

How the values were obtained:
ApoE^–/– mice on an HFD [1] = experiment: Blood chemical analysis of plasma; format: in vivo, mouse; parameters: Lipase / ALT / Altherogenic Lipids (Chol-HDL) / HDL-C / LDL-C: unit not given here
Protocol: SerBut water was pH adjusted using 10 M NaOH to a final pH of 7.4. […] After 6 weeks, mice were euthanized. […] The liver was harvested and part was homogenized in tissue protein extraction reagent buffer (Invitrogen, 78510) supplemented with protease inhibitor mini tablets (Thermo Fisher Scientific, PIA32955) for Western blotting and qPCR. […] Blood chemical analysis was performed on an Alfa […] Chemistry Analyzer. Reagent kits from Alfa Wasserman were used according to manufacturer's instructions to analyze plasma: lipase (catalog SA1045), HDL-C (catalog SA2038, LDL-C (catalog SA1040), AST (catalog SA1053), ALT (catalog SA1052). A LEGENDPlex was utilized to analyze the concentrations of inflammatory cytokines (BioLegend).

ApoE^–/– mice on an HFD [2] = experiment: Flow cytometry of the aorta; format: in vivo, mouse; parameters: Aorta Flow CD11b+F480+ / Aorta Flow CD11b+Ly6Chi: unit not given here
Description: SerBut water was pH adjusted using 10 M NaOH to a final pH of 7.4. […] After 6 weeks, mice were euthanized. […] The liver was harvested and part was homogenized in tissue protein extraction reagent buffer (Invitrogen, 78510) supplemented with protease inhibitor mini tablets (Thermo Fisher Scientific, PIA32955) for Western blotting and qPCR. […] The heart with the ascending and descending aorta to the diaphragm was harvested. The perivascular adipose tissue was carefully removed by microdissection while keeping the adventitia intact. […] After 45 minutes of digestion at 37°C with orbital shaking, aortas were passed through a 70 μm cell strainer, rinsed, pelleted, and plated into a U-bottom 96-well microplate for staining. […] Cells were washed in PBS supplemented with 2% FBS (FACS buffer) and stained for 30 minutes on ice with surface antibodies at a 1:200 dilution in a 1:1 mixture of FACS buffer and Brilliant Stain Buffer (BD Biosciences). Cells were washed with FACS buffer and PBS and fixed with 2% paraformaldehyde on ice for 20 minutes. Cells were washed twice with PBS and resuspended in FACS buffer. Precision count beads (BioLegend) were used to determine absolute cell counts. In this study, antibodies used included those against CD16/CD32 (BioLegend, clone 93, catalog 101302), CCR2 (PE; […] BD Biosciences, clone HL3, catalog 558079, BD Biosciences), […] (APC; […] BD Biosciences, clone 30-F11, catalog 564225), F4/80 (BUV496; BD Biosciences, clone T45-2342, catalog 750644), […].5; BioLegend, clone M5/114.15.2, catalog 107626), Ly-6C (APC-Cy7; […]

LDL-R = experiment: Western blot of LDL-R in liver; format: in vivo, mouse
Description: SerBut water was pH adjusted using 10 M NaOH to a final pH of 7.4. […] After 6 weeks, mice were euthanized. […] The liver was harvested and part was homogenized in tissue protein extraction reagent buffer (Invitrogen, 78510) supplemented with protease inhibitor mini tablets (Thermo Fisher Scientific, PIA32955) for Western blotting and qPCR.

ApoE^–/– mice on an HFD [3] = experiment: CD68 immunohistochemistry and Stary plaque severity grading; format: in vivo, mouse; parameters: STARY Score Average: scale not given here
Protocol: For 6 weeks, mice were freely administered water, water containing 150 mM SerBut, or water containing an equimolar amount of NaBut. SerBut water was pH adjusted using 10 M NaOH to a final pH of 7.4. […] In concert, mice were fed an HFD with 42% from fat and 0.2% total cholesterol (Envigo, TD-88137) ad libitum. After 6 weeks, mice were euthanized. The lMLNs, ILNs, spleen, heart, and aorta were harvested and processed for flow cytometry analysis ([67]). The liver was harvested and part was homogenized in tissue protein extraction reagent buffer (Invitrogen, 78510) supplemented with protease inhibitor mini tablets (Thermo Fisher Scientific, PIA32955) for Western blotting and qPCR. The remaining liver was fixed with 4% paraformaldehyde and embedded in paraffin for histological analysis.
Frozen aortic root sections were fixed in Zamboni fixative for 10 minutes. After TBS wash, slides were loaded on Leica Bond RX automated stainer. Anti–mouse CD68 antibody (BioLegend, catalog 137001, clone FA-11; 1:4000) was applied to tissue sections for 60 minutes of incubation at room temperature. Following TBS wash, tissue sections were incubated with rabbit anti-rat IgG (Thermo Fisher Scientific, 31219) 30 minutes. The antigen-antibody binding was detected using Polymer-HRP (Leica Biosystems, Bond Polymer Refine Detection kit, DS9800). The slides were coverglassed by autocoverslipper (Tissue-Tek Glas g2). Stary plaque severity grading was done as previously described ([42]). Briefly, each individual mouse was scored if there were at least 2 sections showing all 3 leaflets of the aortic valve that could reasonably be scored. Each leaflet was scored individually per aortic valve and subsequently averaged per section. All sections were averaged per mouse for a final score. Sections were graded blinded. Table 1 explains the scoring scale. Quantitative analysis of plaque features was performed using a classifier in QuPath (v.05.0).

NF-κB = experiment: NF-κB-SEAP reporter assay in RAW-Blue cells after LPS; format: cell-based; conditions: for NFkB OD: then 200 ng/mL LPS 6 h
Protocol: NF-κB inhibition was assayed using the NF-κB-SEAP reporter cell line, RAW-Blue (InvivoGen, raw-sp). Cells were plated in round-bottom 96-well plates at 100,000 cells per well and cocultured with different concentrations of either NaBut or SerBut (0.15–12 mM) for 24 hours. After the addition of butyrate, cells were rinsed with phosphate buffered saline (PBS) and then stimulated with 200 ng/mL LPS in media for 6 hours.

[4] = Blood Chemistry, 6wk, individual mice, experiments 1 and 2

CCCC(=O)OC[C@H](N)C(=O)O [SerBut, O-butyryl-L-serine]
lipase in the plasma (ApoE^–/– mice on an HFD [1]; 6 weeks): no effect | total cholesterol or triglycerides in the plasma (ApoE^–/– mice on an HFD [1]; 6 weeks): Neither SerBut nor NaBut influenced | LDL-C as a fraction of total cholesterol (ApoE^–/– mice on an HFD [1]; 6 weeks, 150 mM in drinking water, HFD): significantly reduced | ratio of HDL to total cholesterol (ApoE^–/– mice on an HFD [1]; 6 weeks, compared with NaBut treatment): significantly increased | plasma ALT and AST (ApoE^–/– mice on an HFD [1]; 6 weeks, compared with both water control and NaBut groups): significantly reduced | Altherogenic Lipids (Chol-HDL) (ApoE^–/– mice on an HFD [1]; [4]): 948 and 1048 and 1026 and 1018 and 1032 and 880 and 848 and 784 and 1074 and 722 and 776 and 780 and 800 and 768 and 1080 and 736 and 882 | HDL-C (ApoE^–/– mice on an HFD [1]; [4]): 38 and 52 and 46 and 44 and 48 and 54 and 56 and 42 | LDL-C (ApoE^–/– mice on an HFD [1]; Blood Chemistry, individual mice, experiments 1 and 2): 320 and 324 and 382 and 332 and 336 and 378 and 454 and 290 and 460 and 258 and 354 and 282 and 292 and 318 and 416 and 268 and 238 | ALT (ApoE^–/– mice on an HFD [1]; plasma at 6 weeks, 150 mM in drinking water ad libitum with HFD, individual mice): 30.92 and 18.78 and 25.96 and 23.5 and 26.22 and 26.76 and 26.18 and 26.36 and 22.68 | CD11b^+Ly6C^hi monocytes and CD4^+ T cells in the aorta (ApoE^–/– mice on an HFD [2]; 6 weeks, compared to water-treated controls): significantly reduced | CD45^+ total leukocytes, CD11b^+ monocytes and CCR2^+CD11b^+ monocytes in the aorta (ApoE^–/– mice on an HFD [2]; 6 weeks, compared with control groups): significantly reduced | CD11c^+MHCII^hi dendritic cells, CD11b^+F480^+ macrophages and CD19^+ B cells in the aorta (ApoE^–/– mice on an HFD [2]; 6 weeks, compared with water controls): significantly reduced | Aorta Flow B cell Count (ApoE^–/– mice on an HFD [2]; individual mice): 84.4967 and 264.868 and 232.342 and 96.7663 and 273.748 and 383.747 and 234.355 and 234.323 and 206.881 | Aorta Flow CD11b+F480+ (ApoE^–/– mice on an HFD [2]; individual mice): 2.449 and 2.499 and 9.294 and 20.8231 and 9.359 and 5.0163 and 5.067 and 13.3899 and 12.3679 | Aorta Flow CD11b+Ly6Chi (ApoE^–/– mice on an HFD [2]; individual mice): 17.5571 and 39.2703 and 12.2741 and 5.622 and 12.2459 and 19.99 and 12.7788 and 6.124 and 10.5288 | Aorta Flow T Cell Count (ApoE^–/– mice on an HFD [2]; individual mice): 194.71 and 307.346 and 249.768 and 304.998 and 251.521 and 313.519 and 377.502 and 212.006 and 174.275 | Aorta Flow CD11b+ Count (ApoE^–/– mice on an HFD [2]; individual mice, experiment 2): 156.172 and 152.184 and 222.93 and 139.214 and 215.701 and 328.097 and 166.257 and 155.161 and 99.1918 | Aorta Flow CD11b+CCR2+ (ApoE^–/– mice on an HFD [2]; individual mice, experiment 2): 32.4838 and 20.9108 and 28.1725 and 25.737 and 41.3845 and 93.7421 and 32.3588 and 29.2332 and 22.0426 | Aorta Flow CD45 Count (ApoE^–/– mice on an HFD [2]; individual mice, experiment 2): 1030.73 and 928.206 and 1219.99 and 1078.62 and 1098.57 and 1777.3 and 1018.75 and 756.69 and 848.641 | Aorta Flow CD11c+MHCIIhi (ApoE^–/– mice on an HFD [2]; individual mice, cell count): 16.2419 and 24.3959 and 22.048 and 17.548 and 21.3193 and 22.8021 and 17.8532 and 22.4871 and 13.4705 | LDL-R protein levels in liver (LDL-R; 6 weeks): significantly suppressed | LDL-R Relative Expression (LDL-R; western Blot quantifiation, individual mice): 1.543 and 1.468 and 1.422 and 1.743 and 2.24 and 1.846 and 1.092 and 1.104 and 0.9748 | plaque severity score, CD68^+ stained area and necrotic core area (ApoE^–/– mice on an HFD [3]; 6 weeks, compared with water-treated mice): significant reduction | STARY Score Average (ApoE^–/– mice on an HFD [3]; average per mouse, experiments 1 and 2, grades per the 1st table): 4.31 and 4.429 and 3.833 and 3.944 and 4.333 and 4 and 3.75 and 3.583 | CD68+ IHC Quantification CD68 % Lesion (ApoE^–/– mice on an HFD [3]; individual mice): 69.8799 % Lesion and 66.2246 % Lesion and 57.396 % Lesion and 61.0623 % Lesion and 37.3547 % Lesion and 58.9062 % Lesion and 54.5852 % Lesion | CD68+ IHC Quantification CD68+ (um2) (ApoE^–/– mice on an HFD [3]; individual mice): 83533.6 um2 and 151477 um2 and 57839.2 um2 and 114375 um2 and 26376.1 um2 and 132530 um2 and 122451 um2 | CD68+ IHC Quantification Intima % Lesion (ApoE^–/– mice on an HFD [3]; individual mice): 20.6972 % Lesion and 12.9871 % Lesion and 31.9636 % Lesion and 8.967 % Lesion and 42.8946 % Lesion and 25.2201 % Lesion and 37.0252 % Lesion | CD68+ IHC Quantification Intima (um2) (ApoE^–/– mice on an HFD [3]; individual mice): 25307.3 um2 and 13303.3 um2 and 35976.1 um2 and 33683.8 um2 and 30916.8 um2 and 58237.6 um2 and 82003.5 um2 | CD68+ IHC Quantification Necrotic Core % Lesion (ApoE^–/– mice on an HFD [3]; individual mice): 8.949 % Lesion and 20.1213 % Lesion and 8.471 % Lesion and 28.3702 % Lesion and 18.86 % Lesion and 14.738 % Lesion and 7.7245 % Lesion | CD68+ IHC Quantification Necrotic Core (um2) (ApoE^–/– mice on an HFD [3]; individual mice): 10697.9 um2 and 47552.4 um2 and 8399.84 um2 and 53169.3 um2 and 13317 um2 and 32727 um2 and 17678.5 um2 | NFkB OD (NF-κB; 1.3 mM 24 h): 0.215 and 0.212 and 0.201 and 0.244 and 0.265 and 0.185 | NFkB OD (NF-κB; 4 mM 24 h): 0.151 and 0.171 and 0.176 and 0.19 and 0.152 | NFkB OD (NF-κB; 12 mM 24 h): 0.101 and 0.118 and 0.1 and 0.099 and 0.117 and 0.087 | LPS-induced NF-κB activation (NF-κB; 12 mM, comparable to 1.3 mM NaBut): significantly suppressed LPS-induced NF-κB activation
